Key:
Format in all cases: functional, cell-based
[1] = Antagonist activity at human alpha7 nAChR W149Y mutant co-expressed with human Ric3 in tsA201 cells by FMP assay
[2] = Antagonist activity at human alpha7nAChR Y93A mutant co-expressed with human Ric3 in tsA201 cells by FMP assay
[3] = Antagonist activity at human alpha7nAChR W149A mutant co-expressed with human Ric3 in tsA201 cells by FMP assay
[4] = Antagonist activity at human alpha-7 nAChR Y188A mutant coexpressed with human Ric3 in tsA201 cells by FMP assay
[5] = Antagonist activity at human alpha-7 nAChR Y195A mutant coexpressed with human Ric3 in tsA201 cells by FMP assay

- EC50 ([1]; read-out: EC50): 1.5 mM
- EC50 ([1]; read-out: pEC50 (converted)): 1.58 mM
- EC50 ([2]; read-out: EC50): 0.081 mM
- EC50 ([2]; read-out: pEC50 (converted)): 0.0813 mM
- EC50 ([3]; read-out: EC50): > 30 mM
- EC50 ([3]; read-out: pEC50 (converted)): > 31.6 mM
- EC50 ([4]; read-out: EC50): 3.9 mM
- EC50 ([4]; read-out: pEC50 (converted)): 3.89 mM
- EC50 ([5]; read-out: EC50): 0.26 mM
- EC50 ([5]; read-out: pEC50 (converted)): 0.257 mM
Compound: CC(=O)OCC[N+](C)(C)C [ACETYLCHOLINE]

Source: ChEMBL document CHEMBL1148788 (J Med Chem, 2007)
